Drawing on ChEMBL document CHEMBL2029206, “Design, synthesis and biological evaluation of potent NAD+-dependent DNA ligase inhibitors as potential antibacterial agents. Part 2: 4-amino-pyrido[2,3-d]pyrimidin-5(8H)-ones” (Bioorg Med Chem Lett, 2012), this text covers MIC, IC50 and Activity for 32 molecules.

One assay relates to Streptococcus pneumoniae. The assay is described as follows: Antibacterial activity against Streptococcus pneumoniae ATCC 10015. Format: functional.
A short description of assay [1]: Inhibition of Escherichia coli NAD+dependent DNA ligase.
The next assay has as its system Haemophilus influenzae. The assay is described as follows: Antibacterial activity against Haemophilus influenzae ATCC 51907. Format: functional.
A further assay deals with Staphylococcus aureus. The assay is described as follows: Antibacterial activity against Staphylococcus aureus ATCC 29213. Format: functional.
Assay [2] can be described thus: Inhibition of human ATP-dependent DNA ligase.
In the next assay the test system is Escherichia coli. The assay is described as follows: Antibacterial activity against wild-type Escherichia coli. The assay is classed as functional, organism-based.

SMILES strings stand for the structures. In brackets after ≈: the same amount, converted by molar mass. Activity calls are given as the source filed them. The rule behind the calls is not given here.

The IC50 is the concentration needed to halve the response being measured. A high value points to lower potency. Regarding `Nc1nc(OC2CCC(Cl)CC2)nc2c1c(=O)ccn2[C@H]1CCC[C@@H]1O` (relative stereo), the MIC against Streptococcus pneumoniae came to 6.3 µM (≈ 2.39 µg/mL); in the assay with Haemophilus influenzae, 75 µM (≈ 28.4 µg/mL); in the assay with Staphylococcus aureus, 50 µM (≈ 18.9 µg/mL). Moreover, the IC50 was 41 nM in assay [1] and > 55000 nM in assay [2]. The result with Escherichia coli was inactive.
For `Nc1nc(OCCF)nc2c1c(=O)ccn2CCO`, the IC50 was 1950 nM in assay [1] and > 55000 nM in assay [2]. Moreover, the result in the assay on Escherichia coli was inactive.
As for `C[C@H]1CCCC[C@H]1Oc1nc(N)c2c(=O)ccn([C@@H]3CCC[C@H]3O)c2n1`, the MIC in the assay with Streptococcus pneumoniae stood at 50 µM (≈ 17.9 µg/mL); with Staphylococcus aureus, 100 µM (≈ 35.8 µg/mL). In addition, the figures for the IC50 in assay [1] and in assay [2] were 40 nM and > 55000 nM, respectively. In addition, in the assay on Escherichia coli, the outcome was inactive.
For `C[C@H]1CC[C@H](Oc2nc(N)c3c(=O)ccn(Cc4ccc(C(=O)O)s4)c3n2)CC1`, the MIC against Streptococcus pneumoniae is 83.3 µM (≈ 34.5 µg/mL); against Haemophilus influenzae it was 25 µM (≈ 10.4 µg/mL); in the assay on Staphylococcus aureus, > 100 µM. Besides, the IC50 in assay [1] was 490 nM; in assay [2] it was > 55000 nM. Besides, the outcome in the assay with Escherichia coli was inactive.
For the molecule `C[C@H]1CCCC[C@H]1Oc1nc(N)c2c(=O)ccn(Cc3ccc(C(=O)O)cc3)c2n1` (relative stereo), the MIC in the assay with Streptococcus pneumoniae and against Staphylococcus aureus was > 100 µM throughout. Moreover, the IC50 in assay [1] is 19 nM; in assay [2], > 55000 nM. Moreover, the outcome in the assay on Escherichia coli was inactive.
Regarding `C[C@@H]1CCCC[C@@H]1Oc1nc(N)c2c(=O)ccn(CCO)c2n1` (relative stereo), the IC50 was 57 nM in assay [1] and > 55000 nM in assay [2]. Besides, the result in the assay with Escherichia coli was inactive.
For the molecule `Nc1nc(OC(CF)CF)nc2c1c(=O)ccn2CCO`, the IC50 was 310 nM in assay [1] and > 55000 nM in assay [2]. The result in the assay on Escherichia coli was inactive.
For `C[C@H]1CCCC[C@H]1Oc1nc(N)c2c(=O)ccn(CC(O)CO)c2n1` (relative stereo), the MIC against Streptococcus pneumoniae and with Staphylococcus aureus was > 100 µM each time. Moreover, the IC50 was 79 nM in assay [1] and > 55000 nM in assay [2]. Also, the outcome in the assay with Escherichia coli was inactive.
Take `Nc1nc(NC2CCCC2)nc2c1c(=O)ccn2CCO`: the IC50 in assay [1] is > 10000 nM; in assay [2], > 55000 nM. Further, the result in the assay with Escherichia coli was inactive.
The like results for `C[C@H]1CC[C@H](Oc2nc(N)c3c(=O)ccn(CCO)c3n2)CC1` were, in that order, 420 nM, > 55000 nM and “inactive”.
For the molecule `C[C@H]1CC[C@H](Oc2nc(N)c3c(=O)ccn([C@H]4CC(C(N)=O)C[C@@H]4O)c3n2)CC1` (stereo partly specified), the results for the MIC in the assay on Streptococcus pneumoniae, against Haemophilus influenzae and with Staphylococcus aureus were 20.8 µM (≈ 8.35 µg/mL), 100 µM (≈ 40.1 µg/mL) and > 100 µM, respectively. The IC50 in assay [1] was 48 nM; in assay [2] it was > 55000 nM. The result in the assay with Escherichia coli was inactive.
Consider `CC1CCC(Oc2nc(N)c3c(=O)ccn([C@H]4CCC[C@@H]4O)c3n2)C(C)C1` (relative stereo), for which the MIC in the assay on Streptococcus pneumoniae is 16.7 µM (≈ 6.22 µg/mL); in the assay on Haemophilus influenzae it was 50 µM (≈ 18.6 µg/mL); in the assay with Staphylococcus aureus, > 100 µM. Besides, the figures for the IC50 in assay [1] and in assay [2] were 170 nM and > 55000 nM, respectively. In addition, the outcome in the assay on Escherichia coli was inactive.
Regarding `Nc1nc(OC2CCC(C(F)(F)F)CC2)nc2c1c(=O)ccn2[C@H]1CCC[C@@H]1O` (relative stereo), the MIC in the assay with Streptococcus pneumoniae is 8.4 µM (≈ 3.46 µg/mL); against Haemophilus influenzae it was > 100 µM; in the assay on Staphylococcus aureus, 50 µM (≈ 20.6 µg/mL). Also, the IC50 in assay [1] is 350 nM; in assay [2] it was > 55000 nM. In the assay on Escherichia coli, the result was inactive.
As to `C[C@H]1CCCC[C@H]1Oc1nc(N)c2c(=O)ccn(CC3CC=CC3)c2n1` (relative stereo), the MIC in the assay on Streptococcus pneumoniae and in the assay with Staphylococcus aureus was > 100 µM throughout. Moreover, the IC50 in assay [1] is 20 nM; in assay [2] it was > 55000 nM. Moreover, the outcome in the assay with Escherichia coli was inactive.
As for `CC(C)Oc1nc(N)c2c(=O)ccn(CCO)c2n1`, the IC50 in assay [1] was 1060 nM; in assay [2], > 55000 nM. The result in the assay with Escherichia coli was inactive.
`Nc1nc(SC2CCCC2)nc2c1c(=O)ccn2CCO`: the 50% inhibitory concentration (IC50) is 350 nM in assay [1] and > 55000 nM in assay [2]. In addition, the result with Escherichia coli was inactive.
Consider `C[C@H]1CCCC[C@H]1Oc1nc(N)c2c(=O)ccn(Cc3cn[nH]c3)c2n1` (relative stereo), for which the MIC in the assay with Streptococcus pneumoniae and against Staphylococcus aureus was > 100 µM each time. For the same molecule, the IC50 in assay [1] was 36 nM; in assay [2], > 55000 nM. Moreover, the outcome in the assay with Escherichia coli was inactive.
With `C[C@H]1CCCC[C@H]1Oc1nc(N)c2c(=O)ccn(CC#N)c2n1` (relative stereo), the MIC against Streptococcus pneumoniae and in the assay with Staphylococcus aureus was > 100 µM throughout. Also, the 50% inhibitory concentration (IC50) was 20 nM in assay [1] and > 55000 nM in assay [2]. Also, in the assay with Escherichia coli, the outcome was inactive.
Consider `Nc1nc(OC2CCC3(CC2)OCCO3)nc2c1c(=O)ccn2[C@H]1CCC[C@@H]1O` (relative stereo), for which the MIC is 50 µM (≈ 20.1 µg/mL) against Streptococcus pneumoniae, > 100 µM against Haemophilus influenzae and > 100 µM with Staphylococcus aureus. For the same molecule, the figures for the IC50 in assay [1] and in assay [2] were 90 nM and > 55000 nM, respectively. In addition, the outcome in the assay on Escherichia coli was inactive.
For the molecule `C[C@H]1CC[C@H](Oc2nc(N)c3c(=O)ccn(C4[C@@H](O)CC[C@@H]4O)c3n2)CC1`, the MIC against Streptococcus pneumoniae came out at 5.2 µM (≈ 1.95 µg/mL); in the assay with Haemophilus influenzae, 100 µM (≈ 37.4 µg/mL); in the assay with Staphylococcus aureus it was 25 µM (≈ 9.36 µg/mL). The half-inhibitory concentration (IC50) was 76 nM in assay [1] and > 55000 nM in assay [2]. For the same molecule, the outcome in the assay with Escherichia coli was inactive.
Consider `C[C@H]1CCCC[C@H]1Oc1nc(N)c2c(=O)ccn([C@@H]3COC[C@H]3O)c2n1`, for which the MIC against Streptococcus pneumoniae and in the assay with Staphylococcus aureus was 100 µM (≈ 36 µg/mL) each time. Besides, the IC50 is 38 nM in assay [1] and > 55000 nM in assay [2]. For the same molecule, in the assay with Escherichia coli, the result was inactive.
For the molecule `C[C@H]1CC[C@H](Oc2nc(N)c3c(=O)ccn([C@H]4CC(C(=O)O)C[C@@H]4O)c3n2)CC1` (stereo partly specified), the MIC is 83.3 µM (≈ 33.5 µg/mL) with Streptococcus pneumoniae, > 100 µM in the assay on Haemophilus influenzae and > 100 µM with Staphylococcus aureus. Besides, the IC50 in assay [1] was 51 nM; in assay [2], > 55000 nM. In addition, the outcome in the assay with Escherichia coli was inactive.
For the molecule `C[C@H]1CC[C@H](Oc2nc(N)c3c(=O)ccn([C@H]4CC[C@H](O)[C@@H]4O)c3n2)CC1`, the MIC against Streptococcus pneumoniae was 4.2 µM (≈ 1.57 µg/mL); against Haemophilus influenzae, > 100 µM; with Staphylococcus aureus, 25 µM (≈ 9.36 µg/mL). The IC50 in assay [1] is 225 nM; in assay [2], > 55000 nM. In addition, the outcome in the assay with Escherichia coli was inactive.
In the case of `C[C@H]1CCCC[C@H]1Oc1nc(N)c2c(=O)ccn([C@@H]3CC[C@@H]4C[C@H]3OC4=O)c2n1`, the MIC against Streptococcus pneumoniae and against Staphylococcus aureus was > 100 µM each time. Further, the results for the IC50 in assay [1] and in assay [2] were 28 nM and > 55000 nM, respectively. The outcome in the assay with Escherichia coli was inactive.
With `C[C@H]1CCCC[C@H]1Oc1nc(N)c2c(=O)ccn(CC(O)CF)c2n1` (relative stereo), the MIC against Streptococcus pneumoniae was 100 µM (≈ 35 µg/mL); against Staphylococcus aureus it was > 100 µM. Besides, the IC50 in assay [1] is 28 nM; in assay [2], > 55000 nM. The result in the assay on Escherichia coli was inactive.
The like results for `C[C@H]1CCCC[C@H]1Oc1nc(N)c2c(=O)ccn(CCC#N)c2n1` (relative stereo) were, in that order, > 100 µM, > 100 µM, 36 nM, > 55000 nM and “inactive”.
As to `Nc1nc(SC2CCCC2)nc2c1c(=O)ccn2[C@H]1CCC[C@@H]1O` (relative stereo), the values for the MIC against Streptococcus pneumoniae, in the assay with Haemophilus influenzae and against Staphylococcus aureus were > 100 µM, > 100 µM and 25 µM (≈ 8.66 µg/mL), respectively. Also, the values for the IC50 in assay [1] and in assay [2] were 63 nM and > 55000 nM, respectively. The result in the assay with Escherichia coli was inactive.
For `C[C@H]1CC[C@H](Oc2nc(N)c3c(=O)ccn([C@H]4CCC[C@@H]4O)c3n2)CC1`, the MIC in the assay on Streptococcus pneumoniae stood at 6.3 µM (≈ 2.26 µg/mL); in the assay on Haemophilus influenzae it was 75 µM (≈ 26.9 µg/mL); with Staphylococcus aureus, 18.8 µM (≈ 6.74 µg/mL). Further, the IC50 in assay [1] is 39 nM; in assay [2] it was > 55000 nM. For the same molecule, in the assay on Escherichia coli, the outcome was inactive.
Turning to `C[C@H]1CC[C@H](Oc2nc(N)c3c(=O)ccn([C@@H]4CCC[C@H]4O)c3n2)CC1`, the results for the MIC against Streptococcus pneumoniae, in the assay on Haemophilus influenzae and against Staphylococcus aureus were 3.1 µM (≈ 1.11 µg/mL), 100 µM (≈ 35.8 µg/mL) and 37.5 µM (≈ 13.4 µg/mL), respectively. Further, the IC50 in assay [1] was 190 nM; in assay [2], > 55000 nM. For the same molecule, the result in the assay on Escherichia coli was inactive.
With `Nc1nc(OC2CCCC2)nc2c1c(=O)ccn2CCO`, the IC50 in assay [1] is 510 nM; in assay [2], > 55000 nM. Further, the result with Escherichia coli was inactive.
On to `C[C@H]1CCCC[C@H]1Oc1nc(N)c2c(=O)ccn(CC3C[C@@H](O)[C@@H](O)C3)c2n1` (stereo partly specified), for which the MIC with Streptococcus pneumoniae and in the assay with Staphylococcus aureus was > 100 µM each time. Moreover, the IC50 is 68 nM in assay [1] and > 55000 nM in assay [2]. In the assay on Escherichia coli, the result was inactive.
With `C[C@H]1CCCC[C@H]1Oc1nc(N)c2c(=O)ccn([C@@H]3CCCC[C@H]3O)c2n1`, the MIC worked out at 75 µM (≈ 27.9 µg/mL) in the assay with Streptococcus pneumoniae and 100 µM (≈ 37.2 µg/mL) against Staphylococcus aureus. Also, the IC50 in assay [1] was 110 nM; in assay [2], > 55000 nM. For the same molecule, the outcome with Escherichia coli was inactive.
